Measurements as given in article PMC8213057, “Targeting ALK2: An Open Science Approach to Developing Therapeutics for the Treatment of Diffuse Intrinsic Pontine Glioma” (Journal of Medicinal Chemistry, 2020).

How the values were obtained:
MAPKAPK2 = MAPKAPK2 (Homo sapiens, UniProt P49137); conditions: 1 μM; Run 1, Run 2
MLK2/MAP3K10 = MLK2/MAP3K10 (Homo sapiens, UniProt Q02779); conditions: 1 μM; Run 1, Run 2
PDGFRb = PDGFRb (Homo sapiens, UniProt P09619); conditions: 1 μM; Run 1, Run 2
PKCiota = target: T1, PKCiota (Homo sapiens, UniProt P41743); conditions: 1 μM; Run 1, Run 2
T1 sequence (P41743 1-596): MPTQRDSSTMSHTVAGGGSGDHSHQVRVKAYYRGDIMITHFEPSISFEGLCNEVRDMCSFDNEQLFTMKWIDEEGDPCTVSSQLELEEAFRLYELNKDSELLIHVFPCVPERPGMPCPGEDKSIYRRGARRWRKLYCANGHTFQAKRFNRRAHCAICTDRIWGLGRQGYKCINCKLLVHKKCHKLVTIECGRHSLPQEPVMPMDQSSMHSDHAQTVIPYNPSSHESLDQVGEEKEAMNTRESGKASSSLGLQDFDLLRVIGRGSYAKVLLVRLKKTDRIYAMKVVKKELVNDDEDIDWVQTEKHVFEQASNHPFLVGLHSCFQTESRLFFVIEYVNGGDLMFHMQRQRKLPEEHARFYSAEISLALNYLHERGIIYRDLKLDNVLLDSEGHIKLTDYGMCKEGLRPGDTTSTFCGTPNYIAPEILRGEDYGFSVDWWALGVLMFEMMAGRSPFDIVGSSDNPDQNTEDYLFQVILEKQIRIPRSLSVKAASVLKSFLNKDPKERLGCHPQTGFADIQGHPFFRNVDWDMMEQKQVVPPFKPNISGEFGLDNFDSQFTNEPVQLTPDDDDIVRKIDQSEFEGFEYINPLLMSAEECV

PKG1b = target: T2, PKG1b (Homo sapiens, UniProt Q13976); conditions: 1 μM; Run 1, Run 2
T2 sequence (Q13976 1-686 isoform Q13976-2): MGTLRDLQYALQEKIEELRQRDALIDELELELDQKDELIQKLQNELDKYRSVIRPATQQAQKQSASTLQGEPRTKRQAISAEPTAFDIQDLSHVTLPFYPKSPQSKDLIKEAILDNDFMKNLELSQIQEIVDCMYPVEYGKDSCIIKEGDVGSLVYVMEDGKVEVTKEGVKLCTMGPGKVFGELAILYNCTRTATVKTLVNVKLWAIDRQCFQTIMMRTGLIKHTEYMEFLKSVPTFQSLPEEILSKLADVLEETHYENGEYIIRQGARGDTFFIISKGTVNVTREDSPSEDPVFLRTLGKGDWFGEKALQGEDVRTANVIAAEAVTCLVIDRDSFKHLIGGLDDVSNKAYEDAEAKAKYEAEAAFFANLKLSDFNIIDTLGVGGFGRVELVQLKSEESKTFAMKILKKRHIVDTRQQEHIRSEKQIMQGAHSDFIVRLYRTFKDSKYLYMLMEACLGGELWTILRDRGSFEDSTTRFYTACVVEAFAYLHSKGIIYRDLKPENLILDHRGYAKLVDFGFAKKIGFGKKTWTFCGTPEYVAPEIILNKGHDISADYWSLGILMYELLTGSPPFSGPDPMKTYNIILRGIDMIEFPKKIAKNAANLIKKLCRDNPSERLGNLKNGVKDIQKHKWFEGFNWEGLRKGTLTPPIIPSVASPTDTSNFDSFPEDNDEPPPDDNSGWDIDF

SBK1 = SBK1 (Homo sapiens, UniProt Q52WX2); conditions: 1 μM; Run 1, Run 2
STK22D/TSSK1 = target: T3, STK22D/TSSK1 (Homo sapiens, UniProt Q9BXA7); conditions: 1 μM; Run 1, Run 2
T3 sequence (Q9BXA7 1-367): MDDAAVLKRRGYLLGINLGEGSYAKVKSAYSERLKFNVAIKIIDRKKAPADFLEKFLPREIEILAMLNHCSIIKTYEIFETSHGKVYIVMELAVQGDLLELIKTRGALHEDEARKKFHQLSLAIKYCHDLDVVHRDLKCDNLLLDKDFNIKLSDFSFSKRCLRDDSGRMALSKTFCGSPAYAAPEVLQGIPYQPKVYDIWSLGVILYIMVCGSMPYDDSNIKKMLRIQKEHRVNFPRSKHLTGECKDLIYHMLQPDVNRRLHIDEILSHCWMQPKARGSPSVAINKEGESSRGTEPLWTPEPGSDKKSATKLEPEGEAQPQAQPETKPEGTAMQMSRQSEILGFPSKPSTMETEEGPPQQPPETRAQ

CLK1 = CLK1 (Homo sapiens, UniProt P49759); assay: biochemical; conditions: read-out: % enzyme activity, 1 μM; Run 1, Run 2
SRPK1 = SRPK1 (Homo sapiens, UniProt Q96SB4); assay: biochemical; conditions: read-out: % enzyme activity, 1 μM; Run 1, Run 2
SRPK1, sequence (Q96SB4 whole entry): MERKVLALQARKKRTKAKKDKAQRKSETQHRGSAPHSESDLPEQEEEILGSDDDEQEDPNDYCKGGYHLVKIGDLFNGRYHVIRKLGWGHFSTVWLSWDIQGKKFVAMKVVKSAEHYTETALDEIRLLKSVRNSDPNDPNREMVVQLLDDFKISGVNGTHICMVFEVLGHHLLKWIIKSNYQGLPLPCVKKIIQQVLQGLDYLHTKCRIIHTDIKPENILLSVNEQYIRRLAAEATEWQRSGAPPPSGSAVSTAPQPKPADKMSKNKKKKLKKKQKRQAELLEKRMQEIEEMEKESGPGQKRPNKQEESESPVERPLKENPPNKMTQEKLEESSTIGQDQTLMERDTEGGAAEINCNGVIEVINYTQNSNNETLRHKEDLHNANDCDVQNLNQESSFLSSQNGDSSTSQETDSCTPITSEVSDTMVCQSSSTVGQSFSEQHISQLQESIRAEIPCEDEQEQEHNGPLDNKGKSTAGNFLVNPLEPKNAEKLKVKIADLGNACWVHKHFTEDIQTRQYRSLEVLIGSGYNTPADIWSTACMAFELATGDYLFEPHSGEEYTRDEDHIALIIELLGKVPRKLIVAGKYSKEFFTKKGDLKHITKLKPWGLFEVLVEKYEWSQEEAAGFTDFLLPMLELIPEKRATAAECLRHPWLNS

CLK1, sequence (P49759 whole entry): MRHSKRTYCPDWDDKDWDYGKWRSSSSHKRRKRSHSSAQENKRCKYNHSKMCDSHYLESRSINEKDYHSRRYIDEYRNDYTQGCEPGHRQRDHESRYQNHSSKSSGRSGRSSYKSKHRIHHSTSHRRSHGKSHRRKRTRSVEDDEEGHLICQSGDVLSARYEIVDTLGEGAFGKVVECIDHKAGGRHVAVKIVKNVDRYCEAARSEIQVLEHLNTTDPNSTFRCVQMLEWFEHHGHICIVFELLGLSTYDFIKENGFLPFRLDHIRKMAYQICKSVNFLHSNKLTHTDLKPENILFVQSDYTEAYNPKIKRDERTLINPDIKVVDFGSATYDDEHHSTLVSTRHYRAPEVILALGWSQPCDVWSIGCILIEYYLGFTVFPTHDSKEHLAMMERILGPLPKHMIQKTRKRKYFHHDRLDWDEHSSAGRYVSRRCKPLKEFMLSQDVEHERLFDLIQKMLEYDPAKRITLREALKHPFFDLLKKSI
MAPKAPK2, sequence (P49137 whole entry): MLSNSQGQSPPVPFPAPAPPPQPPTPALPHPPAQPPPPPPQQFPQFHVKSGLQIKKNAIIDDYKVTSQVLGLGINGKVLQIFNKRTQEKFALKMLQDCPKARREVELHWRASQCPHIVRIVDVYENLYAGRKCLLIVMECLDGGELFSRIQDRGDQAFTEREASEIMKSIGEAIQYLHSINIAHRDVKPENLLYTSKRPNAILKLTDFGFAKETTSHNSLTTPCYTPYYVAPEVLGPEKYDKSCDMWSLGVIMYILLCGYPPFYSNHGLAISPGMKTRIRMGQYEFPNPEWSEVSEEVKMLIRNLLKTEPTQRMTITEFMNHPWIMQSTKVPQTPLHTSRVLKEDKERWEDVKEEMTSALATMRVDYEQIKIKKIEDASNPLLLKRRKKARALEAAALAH
PDGFRb, sequence (P09619 33-1106): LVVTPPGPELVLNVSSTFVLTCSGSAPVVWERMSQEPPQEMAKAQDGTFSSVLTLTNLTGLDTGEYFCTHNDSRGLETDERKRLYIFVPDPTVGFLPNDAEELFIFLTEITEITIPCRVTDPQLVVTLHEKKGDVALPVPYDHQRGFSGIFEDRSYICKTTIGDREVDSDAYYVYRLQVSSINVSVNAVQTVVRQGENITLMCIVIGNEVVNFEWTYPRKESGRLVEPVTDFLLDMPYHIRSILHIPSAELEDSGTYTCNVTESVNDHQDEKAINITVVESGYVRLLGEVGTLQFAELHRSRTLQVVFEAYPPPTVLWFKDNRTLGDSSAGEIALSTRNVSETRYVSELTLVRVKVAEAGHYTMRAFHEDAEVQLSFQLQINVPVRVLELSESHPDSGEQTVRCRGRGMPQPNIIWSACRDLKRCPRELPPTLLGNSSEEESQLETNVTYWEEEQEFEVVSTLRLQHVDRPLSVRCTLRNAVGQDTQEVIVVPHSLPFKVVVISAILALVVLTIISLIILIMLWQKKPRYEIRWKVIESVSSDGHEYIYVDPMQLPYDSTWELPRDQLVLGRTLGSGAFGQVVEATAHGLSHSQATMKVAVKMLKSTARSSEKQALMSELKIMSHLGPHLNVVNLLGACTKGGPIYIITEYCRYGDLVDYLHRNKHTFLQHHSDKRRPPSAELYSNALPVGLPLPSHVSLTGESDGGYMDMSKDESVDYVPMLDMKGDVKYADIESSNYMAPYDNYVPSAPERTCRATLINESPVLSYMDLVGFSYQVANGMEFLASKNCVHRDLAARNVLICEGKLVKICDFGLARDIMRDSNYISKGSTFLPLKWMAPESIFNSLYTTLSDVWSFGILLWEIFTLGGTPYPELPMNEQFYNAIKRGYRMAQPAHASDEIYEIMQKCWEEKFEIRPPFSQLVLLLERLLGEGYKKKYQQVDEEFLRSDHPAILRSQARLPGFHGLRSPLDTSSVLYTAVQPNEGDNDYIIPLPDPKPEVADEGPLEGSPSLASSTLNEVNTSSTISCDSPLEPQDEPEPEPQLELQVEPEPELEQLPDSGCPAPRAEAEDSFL
SBK1, sequence (Q52WX2 whole entry): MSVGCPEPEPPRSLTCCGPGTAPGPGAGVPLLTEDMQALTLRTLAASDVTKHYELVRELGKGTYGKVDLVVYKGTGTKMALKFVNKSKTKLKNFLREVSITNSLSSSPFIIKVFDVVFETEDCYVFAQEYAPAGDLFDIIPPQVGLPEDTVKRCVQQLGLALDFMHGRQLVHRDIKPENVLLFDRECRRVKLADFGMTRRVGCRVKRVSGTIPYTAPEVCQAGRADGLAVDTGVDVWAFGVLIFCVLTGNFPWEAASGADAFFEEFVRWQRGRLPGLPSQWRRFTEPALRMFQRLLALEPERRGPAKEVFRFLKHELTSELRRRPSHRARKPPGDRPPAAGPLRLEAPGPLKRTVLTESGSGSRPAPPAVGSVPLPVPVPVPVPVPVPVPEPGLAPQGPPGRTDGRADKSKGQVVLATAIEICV
MLK2/MAP3K10, sequence (Q02779 whole entry): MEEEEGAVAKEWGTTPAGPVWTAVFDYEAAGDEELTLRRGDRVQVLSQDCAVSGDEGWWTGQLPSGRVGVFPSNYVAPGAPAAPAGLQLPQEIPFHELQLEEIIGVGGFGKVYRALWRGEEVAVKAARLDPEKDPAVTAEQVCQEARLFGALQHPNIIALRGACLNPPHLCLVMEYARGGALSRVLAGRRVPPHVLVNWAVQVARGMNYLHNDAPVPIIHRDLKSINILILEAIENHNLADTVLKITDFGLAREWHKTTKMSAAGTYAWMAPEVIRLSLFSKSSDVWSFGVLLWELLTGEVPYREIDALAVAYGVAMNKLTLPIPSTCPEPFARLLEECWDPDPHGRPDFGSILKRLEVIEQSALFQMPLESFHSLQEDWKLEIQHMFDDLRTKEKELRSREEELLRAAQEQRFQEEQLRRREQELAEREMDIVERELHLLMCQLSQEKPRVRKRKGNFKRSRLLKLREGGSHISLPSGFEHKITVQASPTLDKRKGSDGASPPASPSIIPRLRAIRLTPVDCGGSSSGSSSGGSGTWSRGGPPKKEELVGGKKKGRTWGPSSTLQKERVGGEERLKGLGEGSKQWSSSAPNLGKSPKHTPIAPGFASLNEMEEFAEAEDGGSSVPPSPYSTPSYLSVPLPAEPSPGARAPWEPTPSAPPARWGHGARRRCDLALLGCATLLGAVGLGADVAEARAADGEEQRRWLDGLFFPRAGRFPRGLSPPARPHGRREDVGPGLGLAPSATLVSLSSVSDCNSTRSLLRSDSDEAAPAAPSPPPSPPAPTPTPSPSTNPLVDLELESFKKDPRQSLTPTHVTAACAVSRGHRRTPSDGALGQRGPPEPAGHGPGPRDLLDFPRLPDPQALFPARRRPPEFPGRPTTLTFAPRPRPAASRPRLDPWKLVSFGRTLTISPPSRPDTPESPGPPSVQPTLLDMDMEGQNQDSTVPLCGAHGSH

| SMILES | % enzyme activity (MAPKAPK2) | % enzyme activity (MLK2/MAP3K10) | % enzyme activity (PDGFRb) | % enzyme activity (PKCiota) | % enzyme activity (PKG1b) | % enzyme activity (SBK1) | % enzyme activity (STK22D/TSSK1) | remaining activity at 1 µM (CLK1) | remaining activity at 1 µM (SRPK1) |
| --- | --- | --- | --- | --- | --- | --- | --- | --- | --- |
| COc1cc(-c2cncc(-c3ccc(N4C[C@@H](C)N(C)[C@@H](C)C4)cc3)c2C)cc(F)c1C(N)=O [Compound 26c, 2-Fluoro-6-methoxy-4-(4-methyl-5-(4-((3R,5S)-3,4,5-trimethylpiperazin-1-yl)phenyl)pyridin-3-yl)benzamide] | 93.08% | 96.07% | 89.56% | 98.91% | 96.31% | 101.08% | 99.16% | 88% | 89.3% |
| COc1cc(-c2cncc(-c3ccc(N4CCN(C)CC4)cc3)c2C)cc(F)c1C(N)=O [Compound 26a, 2-Fluoro-6-methoxy-4-(4-methyl-5-(4-(4-methylpiperazin-1-yl)phenyl)pyridin-3-yl)benzamide] | 101.22% | 86.29% | 76.01% | 100.36% | 98.83% | 93.74% | 97.01% | 97.8% | 112% |
